Assay results from patent US5493024A, “3,4,N-trisubstituted-4,5-dihydro-1H-pyrazole-1-carboxamides and their use as insectioides” (DowElanco, priority 1993, dated 1996).
Converted amounts (≈) assume the structure as drawn.

Legend:
beet armyworm [1] = assay: Effect on beet armyworm, contact and ingestion test (treated cotton leaf discs); assay type: in vivo, S. exigua (beet armyworm); details: Spodoptera exigua, foliar, 120 h; second-instar larvae, sprayed cotton leaf discs, 5 days at 25° C; read-out: BEET ARMYWORM Contact and Ingestion Test LC50, ppm
Protocol: (§1) Effect on Tobacco Budworm and Beet Armyworm by Leaf Ingestion and/or Contact.
(§2) Stock solutions of the compounds to be tested having a known concentration were prepared by dissolving weighed amounts in a 90:10 mixture of high-purity acetone and ethanol and these solutions were diluted with distilled water (containing 0.05 percent by weight Tween 20™ surfactant) to obtain the spray solutions of known concentration employed. Greenhouse-grown cotton leaves of uniform age were cut into 2.5 cm diameter discs and one disc was placed in the bottom of each of a number of 30 mL plastic cups. The cups were then sprayed by means of a track sprayer applying 0.055 mL of spray solution per cup. The leaf discs were allowed to dry and then a single second-instar H. virescens (tobacco budworm) or S. exigua (beet armyworm) larva was added to each cup and each cup was capped with a perforated plastic lid. Ten cups were prepared for each insect species and each application rate and five applications rates were usually run. Treated cups were stored for 5 days at 25° C. and were then graded for mortality. Untreated controls and positive controls (cypermethrin) were run simultaneously. The amount of test chemical required to kill half of the larvae (LD50) was calculated.

beet armyworm [2] = assay: Effect on beet armyworm, contact test (treated Teflon discs); assay type: in vivo, S. exigua (beet armyworm); details: Spodoptera exigua, 144 h; second-instar larvae, sprayed Teflon discs 24 hours, then 5 more days on untreated leaf, 25° C; read-out: BEET ARMYWORM Contact Test LC50, ppm
Protocol: (§3) Effect on Tobacco Budworm and Beet Armyworm by Contact.
(§4) Stock solutions of the compounds to be tested having a known concentration were prepared by dissolving weighed amounts in a 90:10 mixture of high-purity acetone and ethanol and these solutions were diluted with distilled water (containing 0.05 percent by weight Tween 20™ surfactant) to obtain the spray solutions of known concentration employed. Teflon™ discs 5 cm in diameter were placed in plastic petri dishes of slightly larger diameter and these dishes were sprayed by means of a track sprayer applying 0.104 mL of spray solution per cup. The Teflon™ discs were allowed to dry, a single second-instar H. virescens (tobacco budworm) or S. exigua (beet armyworm) larva was placed on each Teflon™ disc, and each disc was capped with a plastic lid. Ten Teflon™ discs were prepared for each application rate and five application rates were usually run. Treated discs were stored for 24 hours at 25° C. and then the Teflon™ disc was removed and replaced with an untreated cotton leaf disc. After 5 more days of storage at 25 ° C. the dishes were graded for mortality. Untreated controls and positive controls (cypermethrin) were run simultaneously. The amount of test chemical required to kill half of the larvae (LD50) was calculated.

tobacco budworm [3] = assay: Effect on tobacco budworm, contact and ingestion test (treated cotton leaf discs); assay type: in vivo, H. virescens (tobacco budworm); details: Heliothis virescens, foliar, 120 h; second-instar larvae, sprayed cotton leaf discs, 5 days at 25° C; read-out: TOBACCO BUDWORM Contact and Ingestion Test LC50, ppm
Protocol: as §1, §2

tobacco budworm [4] = assay: Effect on tobacco budworm, contact test (treated Teflon discs); assay type: in vivo, H. virescens (tobacco budworm); details: Heliothis virescens, 144 h; second-instar larvae, sprayed Teflon discs 24 hours, then 5 more days on untreated leaf, 25° C; read-out: TOBACCO BUDWORM Contact Test LC50, ppm
Protocol: as §3, §4

[5] = tested on: Blattella germanica nymphs; assay: Effect on cockroaches, contact test (treated vials); assay type: in vivo; details: 168 h, 50 ppm solution, after 7 days, 27° C, read-out: percent control, contact test
Protocol: (§5) Two hundred ppm stock solutions of the compounds to be tested were prepared by dissolving 2.4 milligrams (mg) of each test compound in 12 mL of acetone; four lower concentration solutions were prepared by serial dilution using 3 mL of solution. A 0.5 mL portion of each test solution was pipetted onto 0.2 g of yellow corn meal placed in a small test tube cap (Fisher 02-706-33) and the mixture was placed in a fume hood overnight to allow the solvent to evaporate. […] Each cap was then placed in a 9 cm (centimeter) diameter Petri plate along with a 2 dram vial containing a cotton wick and water. A 0.5 mL portion of each test solution was also pipetted into a 20 mL borosilicate glass scintillation vial. The vials were placed on a roller mixer and the acetone was allowed to evaporate while the vials rolled. […] Five late third or early fourth instar Blattella germanica nymphs weighing 0.01-0.04 g were placed in each vial and each Petri plate and covers were applied loosely to allow entry of air. Each Petri plate and vial was held at 27° C., the Petri plates for 21 days and the vials for 7 days. The percent of mortality was read periodically and at the end of the test.

[6] = tested on: Blattella germanica nymphs; assay: Effect on cockroaches, ingestion test (treated corn meal); assay type: in vivo; details: 504 h, after 21 days, 27° C, read-out: percent control, ingestion test; for mortality at 12.5 ppm: 12.5 ppm solution; for mortality at 50 ppm: 50 ppm solution; for mortality at 200 ppm: 200 ppm solution
Protocol: as §5

O=C(Nc1ccc(C(F)(F)F)cc1)N1CC(c2ccc(C(F)(F)F)cn2)C(c2ccc(F)cc2)=N1 (stereo not shown) [G, 4,5-Dihydro-3-(4-fluorophenyl)-N-(4-trifluoromethylphenyl)-4-(5-trifluoromethyl-2-pyridinyl)-1H-pyrazole-1-carboxamide]
LC50 (beet armyworm [1]): 1 mg/L (≈ 2.01 µM) | LC50 (beet armyworm [2]): 5 mg/L (≈ 10.1 µM) | LC50 (tobacco budworm [3]): 1.1 mg/L (≈ 2.22 µM) | LC50 (tobacco budworm [4]): 8.7 mg/L (≈ 17.5 µM) | mortality at 50 ppm [5]: 100% | mortality at 12.5 ppm [6]: ~100% | mortality at 50 ppm [6]: ~100% | mortality at 200 ppm [6]: 100%

O=C(Nc1ccc(OC(F)(F)F)cc1)N1CC(c2ncc(Cl)cn2)C(c2ccc(F)cc2)=N1 (stereo not shown) [T, 4-(5-Chloro-2-pyrimidinyl)-4,5-dihydro-3-(4-fluorophenyl)-N-(4-trifluoromethoxyphenyl)-1H-pyrazole-1-carboxamide]
LC50 (beet armyworm [1]): 1.4 mg/L (≈ 2.92 µM) | LC50 (beet armyworm [2]): 2.2 mg/L (≈ 4.59 µM) | LC50 (tobacco budworm [3]): 1.3 mg/L (≈ 2.71 µM) | LC50 (tobacco budworm [4]): 7.5 mg/L (≈ 15.6 µM) | mortality at 50 ppm [5]: 100% | mortality at 12.5 ppm [6]: ~100% | mortality at 50 ppm [6]: ~100% | mortality at 200 ppm [6]: 100%
